Here are results for 19 compounds from PubChem BioAssay AID296 (DTP/NCI, 2004).

The test system of this assay is MX-1 breast xenograft, nude mice, tumor weight T/C. The experiment in a line: NCI In Vivo Anticancer Drug Screen. Data for tumor model Human Mammary Carcinoma MX-1 Xenograft (intrarenal inoculation) in NU/NU Swiss (nude) mice. The conditions noted are these: endpoint: mean tumor weight change, higher = larger tumour. An outline of the steps:
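Antitumour effect measured in vivo against vehicle controls, expressed as T/C.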
(In general: Xenograft models place foreign cells or tissue in a host animal.)

[1] abbreviates: dose: 300.0 mg/kg/injection, schedule: Q04DX003 (sc), vehicle: Klucel (hydroxypropylcellulose) (HPC).
[2] abbreviates: dose: 600.0 mg/kg/injection, schedule: Q04DX003 (sc), vehicle: Klucel (hydroxypropylcellulose) (HPC).
The mark [3] stands for this setting: dose: 1200.0 mg/kg/injection, schedule: Q04DX003 (sc), vehicle: Klucel (hydroxypropylcellulose) (HPC).
Setting [4] is: dose: 100.0 mg/kg/injection, schedule: Q04DX003 (sc), vehicle: saline with Tween-80.
Setting [5] is: dose: 150.0 mg/kg/injection, schedule: Q04DX003 (sc), vehicle: saline.

Molecules are shown by their SMILES. Several values for one entry are separate records, joined by “and”; a condition that tells them apart may be missing. Equal entries are not always repeated. Records with an inconclusive call do not appear.

As to `COc1cc(C(=O)c2cc3c(cc2C)OCO3)cc(OC)c1OC`, the T/C is, setting by setting: (dose: 150.0 mg/kg/injection, schedule: Q04DX003 (sc), vehicle: Klucel (hydroxypropylcellulose) (HPC)) 46 % of control; under setting [1], 44 % of control; under setting [2], 43 % of control; under setting [3], 53 % of control.

In the case of `CCOC(=O)C(CC(C)C)NC(=O)C(Cc1ccc(N(CCCl)CCCl)cc1)NC(C)=O` (stereo not drawn), the T/C is 50 % of control (dose: 37.5 mg/kg/injection, schedule: Q04DX003 (sc), vehicle: saline with Tween-80); -97 % of control and -96 % of control (dose: 600.0 mg/kg/injection, schedule: Q04DX003 (sc), vehicle: saline with Tween-80).

Turning to `CC1C=NNC1=O` (stereo not drawn), the T/C (dose: 100.0 mg/kg/injection, schedule: Q01DX010 (sc), vehicle: saline with Tween-80) was 123 % of control; the T/C (dose: 400.0 mg/kg/injection, schedule: Q01DX010 (sc), vehicle: saline with Tween-80) was 62 % of control; the T/C (dose: 800.0 mg/kg/injection, schedule: Q01DX010 (sc), vehicle: saline with Tween-80) is 60 % of control.

With `C=C(C)C(=NC(C)(C)C)Nc1ccccc1`, the T/C under setting [4] is 101 % of control.

Regarding `O=P1(NCCCl)OCCCN1CCCl` (stereo not drawn), the T/C under setting [5] was -95 % of control and -100 % of control; the T/C (dose: 300.0 mg/kg/injection, schedule: Q04DX003 (sc), vehicle: saline) was -100 % of control.

Regarding `CC/C(=C(\c1ccccc1)c1ccc(OCCN(C)C)cc1)c1ccccc1`, the T/C by setting is: (dose: 25.0 mg/kg/injection, schedule: Q01DX010 (sc), vehicle: Klucel (hydroxypropylcellulose) (HPC)) 171 % of control; (dose: 50.0 mg/kg/injection, schedule: Q01DX010 (sc), vehicle: Klucel (hydroxypropylcellulose) (HPC)) 178 % of control; (dose: 100.0 mg/kg/injection, schedule: Q01DX010 (sc), vehicle: Klucel (hydroxypropylcellulose) (HPC)) 83 % of control; (dose: 100.0 mg/kg/injection, schedule: Q04DX003 (sc), vehicle: suspension in saline) 61 % of control; (dose: 200.0 mg/kg/injection, schedule: Q01DX010 (sc), vehicle: Klucel (hydroxypropylcellulose) (HPC)) 240 % of control; (dose: 200.0 mg/kg/injection, schedule: Q04DX003 (sc), vehicle: suspension in saline) 68 % of control. Besides, the T/C (dose: 400.0 mg/kg/injection, schedule: Q04DX003 (sc), vehicle: suspension in saline) is 89 % of control and the T/C (dose: 800.0 mg/kg/injection, schedule: Q04DX003 (sc), vehicle: suspension in saline) was 73 % of control.

Take `C[Si](C)(C)OSc1ccccc1[N+](=O)[O-]`: the T/C reads like this: under setting [1], 92 % of control; under setting [2], 95 % of control; under setting [3], 80 % of control; (dose: 2400.0 mg/kg/injection, schedule: Q04DX003 (sc), vehicle: Klucel (hydroxypropylcellulose) (HPC)) 107 % of control.

On to `COC1CC(CC2CCC(C)C(C(C)C(=O)O)O2)OC2(OC(C)(C3CCC(C)(C4OC(C5OC(O)(CO)C(C)CC5C)CC4C)O3)CC2C)C1C` (stereo not drawn), for which the T/C runs as follows: (dose: 3.75 mg/kg/injection, schedule: Q04DX003 (sc), vehicle: Klucel (hydroxypropylcellulose) (HPC)) 120 % of control; (dose: 7.5 mg/kg/injection, schedule: Q04DX003 (sc), vehicle: Klucel (hydroxypropylcellulose) (HPC)) 65 % of control; (dose: 15.0 mg/kg/injection, schedule: Q04DX003 (sc), vehicle: Klucel (hydroxypropylcellulose) (HPC)) 86 % of control.

On to `CC1CN1P1(N2CC2C)=NP(N2CC2C)(N2CC2C)=NP(N2CC2C)(N2CC2C)=N1` (stereo not drawn), for which the T/C (dose: 18.75 mg/kg/injection, schedule: Q01DX010 (sc), vehicle: saline) was 70 % of control; the T/C (dose: 25.0 mg/kg/injection, schedule: Q01DX010 (sc), vehicle: saline) was 50 % of control; the T/C (dose: 37.5 mg/kg/injection, schedule: Q01DX010 (sc), vehicle: saline) was 41 % of control; the T/C (dose: 50.0 mg/kg/injection, schedule: Q01DX010 (sc), vehicle: saline) was 26 % of control; the T/C (dose: 75.0 mg/kg/injection, schedule: Q01DX010 (sc), vehicle: saline) is 4 % of control; the T/C (dose: 100.0 mg/kg/injection, schedule: Q01DX010 (sc), vehicle: saline) is -7 % of control. Moreover, the T/C under setting [5] is 13 % of control.

On to `O=C1NC(=O)C2C3C=CC(C12)C1C2C(=O)NC(=O)C2C31` (stereo not drawn), for which the T/C (dose: 400.0 mg/kg/injection, schedule: Q04DX003 (sc), vehicle: saline with Tween-80) was 68 % of control and the T/C (dose: 800.0 mg/kg/injection, schedule: Q04DX003 (sc), vehicle: saline with Tween-80) was 57 % of control.

`C/C(=N\N=C(/[Se])N1CC2CCC(CC2)C1)c1ccccn1`: the T/C is, setting by setting: (dose: 25.0 mg/kg/injection, schedule: Q04DX003 (sc), vehicle: Klucel (hydroxypropylcellulose) (HPC)) 106 % of control; (dose: 50.0 mg/kg/injection, schedule: Q04DX003 (sc), vehicle: Klucel (hydroxypropylcellulose) (HPC)) 110 % of control.

For `COC1=C(N)C(=O)c2nc(-c3nc(C(=O)O)c(C)c(-c4ccc(OC)c(OC)c4O)c3N)ccc2C1=O`, the T/C was 15 % of control and 18 % of control (dose: 0.13 mg/kg/injection, schedule: Q01DX010 (sc), vehicle: saline); -77 % of control and -75 % of control (dose: 0.5 mg/kg/injection, schedule: Q01DX010 (sc), vehicle: saline).

Take `O=[n+]1c2ccccc2n([O-])c2ccccc21.[Cl][Ni][Cl]`: the T/C is 90 % of control (dose: 75.0 mg/kg/injection, schedule: Q04DX003 (sc), vehicle: saline with Tween-80) and 53 % of control (dose: 150.0 mg/kg/injection, schedule: Q04DX003 (sc), vehicle: saline with Tween-80).

For the compound `Clc1ccc2nnnn2n1`, the T/C under setting [4] was 173 % of control and the T/C (dose: 200.0 mg/kg/injection, schedule: Q04DX003 (sc), vehicle: saline with Tween-80) is 95 % of control.

For the compound `CCC1=C[C@H]2CN(CCc3c([nH]c4ccccc34)[C@@](C(=O)OC)(c3cc4c(cc3OC)N(C)[C@H]3[C@@](O)(C(=O)OC)[C@H](OC(C)=O)[C@]5(CC)C=CCN6CC[C@]43[C@@H]65)C2)C1`, the T/C (dose: 3.0 mg/kg/injection, schedule: Q04DX003 (sc), vehicle: water) was 108 % of control; the T/C (dose: 6.0 mg/kg/injection, schedule: Q04DX003 (sc), vehicle: water) is 84 % of control; the T/C (dose: 12.0 mg/kg/injection, schedule: Q04DX003 (sc), vehicle: water) is 56 % of control.

Consider `CCC[CH2][Sn]1([CH2]CCC)[O]C2C(CO)OC(n3ccc(N)nc3=O)C2[O]1` (stereo not drawn), for which the T/C is, setting by setting: (dose: 12.0 mg/kg/injection, schedule: Q04DX003 (sc), vehicle: Klucel (hydroxypropylcellulose) (HPC)) 55 % of control; (dose: 24.0 mg/kg/injection, schedule: Q04DX003 (sc), vehicle: Klucel (hydroxypropylcellulose) (HPC)) 59 % of control.

For the compound `O=[N+]([O-])c1ccc([I+]c2ccccc2)cc1`, under “dose: 75.0 mg/kg/injection, schedule: Q04DX003 (ip), vehicle: Klucel (hydroxypropylcellulose) (HPC)”, the T/C is 92 % of control.

With `O=C1C(NCCO)=C(N2CC2)C(=O)C(NCCO)=C1N1CC1`, the T/C is, setting by setting: (dose: 0.5 mg/kg/injection, schedule: Q04DX003 (ip), vehicle: saline) 69 % of control; (dose: 0.75 mg/kg/injection, schedule: Q04DX003 (sc), vehicle: saline) 64 % of control; (dose: 1.0 mg/kg/injection, schedule: Q04DX003 (ip), vehicle: saline) 50 % of control; (dose: 1.5 mg/kg/injection, schedule: Q04DX003 (sc), vehicle: saline) 37 % of control; (dose: 2.0 mg/kg/injection, schedule: Q04DX003 (ip), vehicle: saline) 29 % of control; (dose: 2.0 mg/kg/injection, schedule: Q04DX003 (sc), vehicle: saline) 66 % of control. Besides, the T/C by setting is: (dose: 3.0 mg/kg/injection, schedule: Q04DX003 (sc), vehicle: saline) 9 % of control; (dose: 4.0 mg/kg/injection, schedule: Q04DX003 (ip), vehicle: saline) 8 % of control; (dose: 8.0 mg/kg/injection, schedule: Q04DX003 (sc), vehicle: saline) -90 % of control.

`OCCN1CCN(CC/C=C2/c3ccccc3Sc3ccc(C(F)(F)F)cc32)CC1`: the T/C was 65 % of control (dose: 30.0 mg/kg/injection, schedule: Q04DX003 (sc), vehicle: saline); 43 % of control (dose: 60.0 mg/kg/injection, schedule: Q04DX003 (sc), vehicle: saline); 29 % of control and 43 % of control (dose: 120.0 mg/kg/injection, schedule: Q04DX003 (sc), vehicle: saline); 17 % of control and 21 % of control (dose: 240.0 mg/kg/injection, schedule: Q04DX003 (sc), vehicle: saline).
